# Laboratory results published in patent US7902375B2, “5-phenyl-4-methyl-thiazol-2-yl-amine derivatives as inhibitors of phosphatidylin ositol 3 kinase enzymes (PI13) for treatment of inflammatory diseases” (Novartis AG, priority 2003, dated 2011).
# Target: T1, human PI3Kγ (recombinant GST-p110γ) (Homo sapiens, UniProt P48736)
# T1 construct: Residues 38-1102 of human PI3Kγ are subcloned into the BamH1 and EcoR1 sites of the transfer vector pAcG2T; made in house; host or cells: Sf9 (Spodoptera frugiperda) insect cells, baculovirus
# T1 sequence (P48736 38-1102): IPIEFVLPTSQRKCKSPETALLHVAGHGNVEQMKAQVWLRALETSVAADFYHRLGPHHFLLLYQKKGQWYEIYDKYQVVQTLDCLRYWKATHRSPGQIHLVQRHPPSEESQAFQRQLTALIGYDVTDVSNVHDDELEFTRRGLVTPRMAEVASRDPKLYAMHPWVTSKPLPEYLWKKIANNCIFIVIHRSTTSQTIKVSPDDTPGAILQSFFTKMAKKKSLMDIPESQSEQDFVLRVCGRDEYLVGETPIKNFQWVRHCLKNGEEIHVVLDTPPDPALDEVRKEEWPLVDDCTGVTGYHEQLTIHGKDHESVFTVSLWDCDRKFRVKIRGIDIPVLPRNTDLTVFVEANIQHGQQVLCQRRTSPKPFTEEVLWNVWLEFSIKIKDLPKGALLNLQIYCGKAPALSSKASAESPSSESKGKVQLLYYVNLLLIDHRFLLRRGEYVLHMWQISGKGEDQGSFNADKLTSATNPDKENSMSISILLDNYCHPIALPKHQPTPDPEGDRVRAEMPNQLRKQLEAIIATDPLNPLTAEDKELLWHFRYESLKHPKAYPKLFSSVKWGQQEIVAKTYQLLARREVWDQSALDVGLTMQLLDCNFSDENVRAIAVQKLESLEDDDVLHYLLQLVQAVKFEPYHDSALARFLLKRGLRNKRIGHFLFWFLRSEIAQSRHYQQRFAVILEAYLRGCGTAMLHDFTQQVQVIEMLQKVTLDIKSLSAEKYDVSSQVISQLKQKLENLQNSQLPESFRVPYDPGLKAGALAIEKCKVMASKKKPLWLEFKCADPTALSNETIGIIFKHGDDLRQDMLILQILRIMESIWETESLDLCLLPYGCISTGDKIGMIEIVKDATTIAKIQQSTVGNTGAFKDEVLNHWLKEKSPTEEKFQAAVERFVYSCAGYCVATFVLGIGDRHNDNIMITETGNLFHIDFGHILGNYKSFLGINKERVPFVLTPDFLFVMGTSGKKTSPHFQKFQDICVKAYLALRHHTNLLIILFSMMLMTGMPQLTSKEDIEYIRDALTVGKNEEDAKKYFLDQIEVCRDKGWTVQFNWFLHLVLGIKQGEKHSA
# Experiment: in vitro kinase assay (Scintillation Proximity Assay), PI3K gamma isoform
# Type: biochemical
# Conditions: SPA, phosphatidylinositol substrate, 60 minutes room temperature
# Experimental: To express the recombinant protein, Sf9 (Spodoptera frugiperda 9) insect cells are routinely maintained at densities between 3×10^5 and 3×10^6 cells/ml in serum containing TNMFH medium (Sigma). Sf9 cells, at a density of 2×10^6 are infected with human GST-PI3KγΔ34 baculovirus at a multiplicity of infection (m.o.i.) of 1 for 72 hours. The infected cells are harvested by centrifugation at 1400 g for 4 minutes at 4° C. and the cell pellets are frozen at −80° C. […] Cell lysate (supernatant) is added (usually as 50 ml lysate to 1 ml GST resin in 50 ml tubes) and gently rotated on a mixer at 4° C. for 2-3 hours. The unbound flow through sample is collected by centrifugation at 1000 g for 5 minutes at 4° C. using a DENLEY™ centrifuge. The 1 ml GST resin containing bound material is transferred to a 15 ml FALCON™ centrifuge tube for subsequent washing and elution steps. Firstly a series of 3 cycles of washings (mixing by gentle inversion) is performed with 15 ml ice cold wash Buffer A (50 mM Tris-HCl pH 7.5, 1% Triton X-100, 2 mM DTT) interspersed with centrifugation at 1000 g for 5 minutes at 4° C. A final single wash step is performed with 15 ml ice cold wash Buffer B (50 mM Tris-HCl pH 7.5, 2 mM DTT) and then centrifuged at 1000 g for 5 minutes at 4° C. The washed GST resin is finally eluted with 4 cycles of 1 ml ice cold elution buffer (50 mM Tris-HCl pH 7.5, 10 mM reduced glutathione, 2 mM DTT, 150 mM NaCl, 1 mM NaF, 50% ethylene glycol and protease inhibitors) interspersed with centrifugation at 1000 g for 5 minutes at 4° C. Samples are aliquoted and stored at −20° C.
# An in vitro kinase assay was established that measures the transfer of the terminal phosphate of adenosine triphosphate to phosphatidylinositol. The kinase reaction is performed in a white 96 well microtitre plate as a Scintillation Proximiy Assay. […] The reaction is started by the addition of 20 μl of enzyme mix (40 mM Tris, 200 mM NaCl, 2 mM EGTA containing recombinant GST-p110γ).
row,SMILES,IC50 [nM]
1,"Cc1nc(NC(=O)NCC(=O)N(C)C(C)C)sc1-c1ccc(S(C)(=O)=O)c(F)c1 [Example 138, 2-{3-[5-(3-Fluoro-4-methanesulfonyl-phenyl)-4-methyl-thiazol-2-yl]-ureido)-N-isopropyl-N-methyl-acetamide]",18
2,"CCC(C)(C)NC(=O)CCNC(=O)Nc1nc(C)c(-c2ccc(S(C)(=O)=O)c(F)c2)s1 [Example 145, N-(1,1-Dimethyl-propyl)-3-{3-[5-(3-fluoro-4-methanesulfonyl-phenyl)-4-methyl-thiazol-2-yl]-ureido}-propionamide]",17

# Results, then the compound that gave them:
row,IC50 [nM],SMILES
1,7,"Cc1nc(NC(=O)NCc2nnn[nH]2)sc1-c1ccc(S(C)(=O)=O)c(F)c1 [Example 124, 1-[5-(3-Fluoro-4-methanesulfonyl-phenyl)-4-methyl-thiazol-2-yl]-3-(1H-tetrazol-5-ylmethyl)-urea]"
2,17,"CCn1nnc(CNC(=O)Nc2nc(C)c(-c3ccc(S(C)(=O)=O)c(F)c3)s2)n1 [Example 131, 1-(2-Ethyl-2H-tetrazol-5-ylmethyl)-3-[5-(3-fluoro-4-methanesulfonyl-phenyl)-4-methyl-thiazol-2-yl]-urea]"
3,56,"Cc1nc(NC(=O)NCCc2nnn(C(C)C)n2)sc1-c1ccc(S(C)(=O)=O)c(F)c1 [Example 150, 1-[5-(3-Fluoro-4-methanesulfonyl-phenyl)-4-methyl-thiazol-2-yl]-3-[2-(2-isopropyl-2H-tetrazol-5-yl)-ethyl]-urea]"
